Assay results: patent US20200024278A1, “COMPOSITION COMPRISING ANTIBIOTIC COMPOUND AND AN HETEROCYCLIC COMPOUND AND THEIR USE IN PREVENTING OR TREATING BACTERIAL INFECTIONS” (MUTABILIS, priority 2016, published 2020)

Experiments:
Experiment in all cases: MIC, broth microdilution (CLSI), substance alone or ATB combined with compound at 4 or 8 μg/mL
[1] = tested on: ECO UFR39; assay type: cell-based, E. coli; settings: ECO UFR39; for MIC ATB combined with Example compound: compound @8 μg/ml
Method in brief: (§1)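 Per CLSI-M7-A7, MICs are determined in cation-adjusted Mueller-Hinton broth with a final inoculum of 5·10^5 CFU/mL. Plates incubate 16-20 h at 35° C in air and are read by eye. Fosfomycin assays carry 25 μg/ml glucose-6-phosphate.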

[2] = tested on: ECO 190317; assay type: cell-based, E. coli; settings: ECO 190317
Method in brief: as §1

[3] = tested on: PAE UFR48; assay type: cell-based, P. aeruginosa; settings: PAE UFR48; for MIC ATB combined with compound / MIC ATB combined with Example compound: compound @8 μg/ml
Method in brief: as §1

[4] = tested on: PAE 105250; assay type: cell-based, P. aeruginosa; settings: PAE 105250; for MIC ATB combined with compound / MIC ATB combined with Example compound: compound @8 μg/ml
Method in brief: as §1

[5] = tested on: PAE UFR90; assay type: cell-based, P. aeruginosa; settings: PAE UFR90; for MIC ATB combined with compound / MIC ATB combined with Example compound: compound @8 μg/ml
Method in brief: as §1

[6] = tested on: ECL P99; assay type: cell-based, E. cloacae; settings: ECL P99
Method in brief: as §1

[7] = tested on: SAU 29213; assay type: cell-based, S. aureus; settings: for MIC ATB combined with compound / MIC ATB combined with Example compound: compound @8 μg/ml, SAU 29213
Method in brief: as §1

[8] = tested on: ABA UFR154; assay type: cell-based, A. baumannii; settings: Acinetobacter baumannii, substance alone, read-out: MIC
Method in brief: as §1

[9] = tested on: ABA UFR155; assay type: cell-based, A. baumannii; settings: Acinetobacter baumannii, substance alone, read-out: MIC
Method in brief: as §1

[10] = tested on: KPN UFR42; assay type: cell-based, K. pneumoniae; settings: KPN UFR42; for MIC ATB combined with Example compound: compound @8 μg/ml
Method in brief: as §1

[11] = tested on: KPN 6299; assay type: cell-based, K. pneumoniae; settings: MIC of CIP, compound @8 μg/ml
Method in brief: as §1

[12] = tested on: KPN BAA-1898; assay type: cell-based, K. pneumoniae; settings: KPN BAA-1898
Method in brief: as §1

[13] = tested on: SPN 49619; assay type: cell-based, S. pneumoniae; settings: SPN 49619; for MIC ATB combined with compound / MIC ATB combined with Example compound: compound @8 μg/ml
Method in brief: as §1

[14] = Escherichia coli, substance alone, read-out: MIC
[15] = Pseudomonas aeruginosa, substance alone, read-out: MIC

Compound: NC[C@H]1C=C(c2cnco2)[C@@H]2CN1C(=O)N2OS(=O)(=O)[O-].O=C(O)C(F)(F)F.[Na+] (relative stereo) [Example 1, sodium and 2,2,2-trifluoroacetate [trans-2-(azaniumylmethyl)-4-oxazol-5-yl-7-oxo-1,6-diazabicyclo[3.2.1]oct-3-en-6-yl] sulfate]
- MIC [1, 14]: 0.031 µg/mL
- MIC ATB combined with Example compound ([1]; MIC of CIP): <0.031 µg/mL
- MIC ATB combined with Example compound ([1]; MIC of CPO): <0.031 µg/mL
- MIC [2, 14]: 0.031 µg/mL
- MIC ATB combined with Example compound ([2]; MIC of CIP, compound @8 μg/ml): <0.031 µg/mL
- MIC ATB combined with compound ([3]; ATB ATM): <0.031 µg/mL
- MIC ATB combined with compound ([3]; ATB FEP): <0.031 µg/mL
- MIC ATB combined with compound ([3]; ATB FOS): 2 µg/mL
- MIC ATB combined with compound ([3]; ATB MEM): <0.031 µg/mL
- MIC ATB combined with compound ([3]; ATB PIP): <0.031 µg/mL
- MIC ATB combined with Example compound ([3]; MIC of CIP): <0.031 µg/mL
- MIC ATB combined with Example compound ([3]; MIC of CPO): <0.031 µg/mL
- MIC [3, 15]: 4 µg/mL
- MIC ATB combined with compound ([4]; ATB ATM): <0.031 µg/mL
- MIC ATB combined with compound ([4]; ATB FEP): <0.031 µg/mL
- MIC ATB combined with compound ([4]; ATB FOS): 4 µg/mL
- MIC ATB combined with compound ([4]; ATB MEM): <0.031 µg/mL
- MIC ATB combined with compound ([4]; ATB PIP): <0.031 µg/mL
- MIC ATB combined with Example compound ([4]; MIC of CIP): <0.031 µg/mL
- MIC ATB combined with Example compound ([4]; MIC of CPO): <0.031 µg/mL
- MIC [4, 15]: > 32 µg/mL
- MIC ATB combined with compound ([5]; ATB ATM): <0.031 µg/mL
- MIC ATB combined with compound ([5]; ATB FEP): <0.031 µg/mL
- MIC ATB combined with compound ([5]; ATB FOS): <0.125 µg/mL
- MIC ATB combined with compound ([5]; ATB MEM): <0.031 µg/mL
- MIC ATB combined with compound ([5]; ATB PIP): <0.031 µg/mL
- MIC ATB combined with Example compound ([5]; MIC of CIP): <0.031 µg/mL
- MIC ATB combined with Example compound ([5]; MIC of CPO): <0.031 µg/mL
- MIC [5, 15]: 0.5 µg/mL
- MIC ([6]; Enterobacter cloacae, substance alone, read-out: MIC): 0.031 µg/mL
- MIC ATB combined with Example compound ([6]; MIC of CIP, compound @8 μg/ml): <0.031 µg/mL
- MIC ATB combined with compound ([7]; ATB ATM): >32 µg/mL
- MIC ATB combined with compound ([7]; ATB FEP): 4 µg/mL
- MIC ATB combined with compound ([7]; ATB FOS): 1 µg/mL
- MIC ATB combined with compound ([7]; ATB MEM): 0.125 µg/mL
- MIC ATB combined with compound ([7]; ATB PIP): 5 µg/mL
- MIC ATB combined with Example compound ([7]; MIC of CIP): 0.5 µg/mL
- MIC ATB combined with Example compound ([7]; MIC of CLI): 0.125 µg/mL
- MIC ATB combined with Example compound ([7]; MIC of CPO): 1 µg/mL
- MIC ATB combined with Example compound ([7]; MIC of DAP): 0.0078 µg/mL
- MIC ATB combined with Example compound ([7]; MIC of ERY): 0.25 µg/mL
- MIC ATB combined with Example compound ([7]; MIC of LZD): 2 µg/mL
- MIC ATB combined with Example compound ([7]; MIC of RIF): 0.0078 µg/mL
- MIC ATB combined with Example compound ([7]; MIC of SYN): 0.5 µg/mL
- MIC ATB combined with Example compound ([7]; MIC of VAN): 1 µg/mL
- MIC ([7]; Staphylococcus aureus, substance alone, SAU 29213 (MSSA 29213), read-out: MIC): > 32 µg/mL
- MIC [8]: > 32 µg/mL
- MIC [9]: > 32 µg/mL
- MIC ([10]; Klebsiella pneumoniae, substance alone, read-out: MIC): > 32 µg/mL
- MIC ATB combined with Example compound ([10]; MIC of CIP): >32 µg/mL
- MIC ATB combined with Example compound ([10]; MIC of CPO): 16 µg/mL
- MIC ATB combined with Example compound [11]: 32 µg/mL
- MIC ([12]; Klebsiella pneumoniae, BAA1898, substance alone, read-out: MIC): > 32 µg/mL
- MIC ATB combined with Example compound ([12]; MIC of CIP, compound @8 μg/ml): 16 µg/mL
- MIC ATB combined with compound ([13]; ATB ATM): >32 µg/mL
- MIC ATB combined with compound ([13]; ATB FEP): 0.063 µg/mL
- MIC ATB combined with compound ([13]; ATB FOS): 32 µg/mL
- MIC ATB combined with compound ([13]; ATB MEM): 0.063 µg/mL
- MIC ATB combined with compound ([13]; ATB PIP): 0.5 µg/mL
- MIC ATB combined with Example compound ([13]; MIC of CIP): 1 µg/mL
- MIC ATB combined with Example compound ([13]; MIC of CLI): 0.063 µg/mL
- MIC ATB combined with Example compound ([13]; MIC of CPO): <=0.031 μg/mL
- MIC ATB combined with Example compound ([13]; MIC of DAP): 0.125 µg/mL
- MIC ATB combined with Example compound ([13]; MIC of ERY): 0.063 µg/mL
- MIC ATB combined with Example compound ([13]; MIC of LZD): 1 µg/mL
- MIC ATB combined with Example compound ([13]; MIC of RIF): 0.063 µg/mL
- MIC ATB combined with Example compound ([13]; MIC of SYN): 0.5 µg/mL
- MIC ATB combined with Example compound ([13]; MIC of VAN): 0.25 µg/mL
- MIC ([13]; Streptococcus pneumoniae, substance alone, read-out: MIC): > 32 µg/mL
